In patent publication US20120196899A1, “METHODS AND PRODUCTS FOR TREATING INFLAMMATION” (Rock Creek Pharmaceuticals, Inc., priority 2010, published 2012):
Values joined by “and” are separate entries in the source; they are usually repeats but may differ in a detail not shown here. Identical values can stand only once.

How the values were obtained:
[1] = Body weights, weight gain and food consumption over 14 days after single i.v. dose; format: in vivo, Sprague-Dawley rats; conditions: for day 1 B.W. / day 2 B.W. / day 3 B.W. / day 4 B.W. / day 5 B.W. / day 6 B.W. / day 7 B.W. / day 8 B.W. / day 9 B.W. / day 11 B.W. / day 12 B.W. / day 13 B.W. / day 14 B.W. / day 10 B.W.: individual rats
Description: Body weight and food consumption was measured daily for 14 days. On day 15, urine was collected on all surviving animals. The animals were euthanized and bled via cardiac puncture, and blood was collected for analysis. Tissues were collected, weighed, evaluated for gross abnormalities, and stored in 10% neutral-buffered formalin.
All animals were observed daily.

Urinalysis, day 15 = format: in vivo, Sprague-Dawley rats; conditions: Anatabine dose 0.1 mg/kg
From the text: On day 15, urine was collected on all surviving animals for urinalysis. The animals were euthanized and bled via cardiac puncture. Blood was collected for hematology, clinical chemistry, and coagulation analysis. Tissues were collected, weighed, and stored in 10% neutral-buffered formalin for possible future analysis.
There were no notable differences between the active treatment groups and controls and the observations are all consistent with those expected for this species.

[2] = anatabine 0.1 mg/kg single i.v., Male
[3] = anatabine 0.75 mg/kg single i.v., Female
[4] = anatabine 0.75 mg/kg single i.v., Male
[5] = individual animals B1-B10 (M and F)

C1=CCC(c2cccnc2)NC1 (racemic) [Anatabine, 1,2,3,6-tetrahydro-[2,3′]bipyridinyl]
day 1 B.W. ([1]; 0.1 mg/kg, F): 211.1 g and 201.0 g and 210.9 g | day 2 B.W. ([1]; 0.1 mg/kg, F): 223.9 g and 215.1 g and 208.1 g and 208.8 g and 212.8 g | day 3 B.W. ([1]; 0.1 mg/kg, F): 230.8 g and 213.2 g and 209.1 g (2×) and 219.3 g | day 4 B.W. ([1]; 0.1 mg/kg, F): 242.3 g and 222.4 g and 220.7 g and 211.4 g and 224.7 g | day 5 B.W. ([1]; 0.1 mg/kg, F): 246.9 g and 226.4 g and 219.3 g and 221.0 g and 229.5 g | day 6 B.W. ([1]; 0.1 mg/kg, F): 241.1 g and 235.5 g and 220.1 g and 218.8 g and 222.9 g | day 7 B.W. ([1]; 0.1 mg/kg, F): 246.5 g and 226.4 g and 221.7 g and 222.1 g and 232.1 g | day 8 B.W. ([1]; 0.1 mg/kg, F): 252.0 g and 232.0 g and 227.0 g and 235.0 g | day 9 B.W. ([1]; 0.1 mg/kg, F): 255.1 g and 239.9 g and 224.1 g and 232.0 g | day 11 B.W. ([1]; 0.1 mg/kg, F): 274.8 g and 238.5 g and 233.9 g and 245.6 g and 245.4 g | day 12 B.W. ([1]; 0.1 mg/kg, F): 277.2 g and 246.3 g and 242.0 g and 240.0 g and 241.6 g | day 13 B.W. ([1]; 0.1 mg/kg, F): 271.8 g and 241 g and 242.1 g | day 14 B.W. ([1]; 0.1 mg/kg, F): 272.7 g and 248.5 g and 243.9 g and 255.6 g and 239.2 g | day 1 B.W. ([1]; 0.1 mg/kg, M): 233.7 g and 235.0 g and 243.5 g and 239.9 g | day 2 B.W. ([1]; 0.1 mg/kg, M): 257.0 g and 235.1 g and 231.0 g and 253.5 g and 247.3 g | day 3 B.W. ([1]; 0.1 mg/kg, M): 270.0 g and 251.0 g and 252.0 g and 259.4 g | day 4 B.W. ([1]; 0.1 mg/kg, M): 286.0 g and 270.0 g and 271.2 g and 280.5 g and 273.7 g | day 5 B.W. ([1]; 0.1 mg/kg, M): 296.5 g and 273.8 g and 278.5 g and 288.3 g and 286.6 g | day 6 B.W. ([1]; 0.1 mg/kg, M): 301.8 g and 278 g and 284.3 g and 288.3 g and 219.6 g | day 7 B.W. ([1]; 0.1 mg/kg, M): 318.2 g and 293.8 g and 297.6 g and 301.2 g and 300.7 g | day 8 B.W. ([1]; 0.1 mg/kg, M): 327.0 g and 309.0 g and 310.0 g and 311.0 g | day 9 B.W. ([1]; 0.1 mg/kg, M): 336.8 g and 303.4 g and 310.0 g and 318.7 g and 317.4 g | day 10 B.W. ([1]; 0.1 mg/kg, M): 346.4 g and 312.9 g and 319.9 g and 322.3 g and 330.4 g | day 11 B.W. ([1]; 0.1 mg/kg, M): 365.7 g and 331.0 g and 343.8 g and 346.9 g and 348.8 g | day 12 B.W. ([1]; 0.1 mg/kg, M): 359.9 g and 320.0 g and 341.9 g and 347.3 g and 360.9 g | day 13 B.W. ([1]; 0.1 mg/kg, M): 367 g and 331 g and 349 g and 334.4 g and 360 g | day 14 B.W. ([1]; 0.1 mg/kg, M): 391.0 g and 347.3 g and 368.8 g and 353.5 g and 373.8 g | day 1 B.W. ([1]; 0.75 mg/kg, F): 208.9 g and 207.7 g and 219.1 g and 196.7 g and 199.5 g | day 2 B.W. ([1]; 0.75 mg/kg, F): 206.2 g and 210.0 g (2×) and 225.5 g and 210.1 g | day 3 B.W. ([1]; 0.75 mg/kg, F): 214.0 g (2×) and 224.8 g and 213.6 g and 210.8 g | day 6 B.W. ([1]; 0.75 mg/kg, F): 224.4 g and 217.8 g and 236.2 g and 214.7 g and 221.4 g | day 7 B.W. ([1]; 0.75 mg/kg, F): 227.4 g and 243.2 g and 222 g and 219.3 g | day 8 B.W. ([1]; 0.75 mg/kg, F): 232.0 g and 220.0 g and 243.0 g and 224.6 g and 227.4 g | day 9 B.W. ([1]; 0.75 mg/kg, F): 237.3 g and 226.3 g and 247.6 g and 229.1 g and 230.6 g | day 10 B.W. ([1]; 0.75 mg/kg, F): 239.3 g and 232.2 g and 252.7 g and 230.9 g and 233.5 g | day 11 B.W. ([1]; 0.75 mg/kg, F): 250.9 g and 239.1 g and 268.8 g and 240.9 g and 244.1 g | day 12 B.W. ([1]; 0.75 mg/kg, F): 249.7 g and 233.5 g and 259.6 g and 241.6 g and 247.9 g | day 13 B.W. ([1]; 0.75 mg/kg, F): 248 g and 237.2 g and 268 g and 234 g and 243 g | day 14 B.W. ([1]; 0.75 mg/kg, F): 251.5 g and 242.8 g and 274.1 g and 250.7 g and 250.6 g | day 4 B.W. ([1]; 0.75 mg/kg, F, second one headed day 4): 225.4 g and 219.3 g and 237.1 g and 220.8 g and 227.6 g | day 4 B.W. ([1]; 0.75 mg/kg, F, day 4): 230.0 g and 214.7 g and 232.4 g and 222.1 g and 220.0 g | day 1 B.W. ([1]; 0.75 mg/kg, M): 242.7 g and 251.4 g and 231.9 g and 226.8 g and 239.8 g | day 2 B.W. ([1]; 0.75 mg/kg, M): 259.7 g and 240.0 g and 232.1 g and 247.2 g | day 3 B.W. ([1]; 0.75 mg/kg, M): 261.1 g and 269.1 g and 252.0 g and 243.0 g and 256.1 g | day 6 B.W. ([1]; 0.75 mg/kg, M): 282.4 g and 287.6 g and 268.2 g (2×) and 281.3 g | day 7 B.W. ([1]; 0.75 mg/kg, M): 294.5 g and 302.9 g and 281.8 g and 274.1 g and 287.1 g | day 8 B.W. ([1]; 0.75 mg/kg, M): 300.0 g and 310.6 g and 293.4 g and 284.2 g | day 9 B.W. ([1]; 0.75 mg/kg, M): 307.6 g and 319.8 g and 298.8 g and 296.2 g and 298.5 g | day 10 B.W. ([1]; 0.75 mg/kg, M): 317.2 g and 331.9 g and 307.9 g and 303.8 g and 306.8 g | day 11 B.W. ([1]; 0.75 mg/kg, M): 334.6 g and 339.8 g and 329.4 g and 316.1 g and 321.9 g | day 12 B.W. ([1]; 0.75 mg/kg, M): 327.6 g and 325.4 g and 322.5 g and 324.8 g and 331.1 g | day 13 B.W. ([1]; 0.75 mg/kg, M): 335.6 g and 338 g and 330 g and 326 g (2×) | day 14 B.W. ([1]; 0.75 mg/kg, M): 351.9 g and 357.9 g and 345.1 g and 339 g and 335.9 g | day 4 B.W. ([1]; 0.75 mg/kg, M, second one headed day 4): 282.3 g and 287.6 g and 269.9 g and 262.0 g and 275.7 g | day 4 B.W. ([1]; 0.75 mg/kg, M, day 4): 275.7 g and 286.0 g and 268.0 g and 256.3 g and 271.2 g | Mean weigth increase by day 14 ([1]; anatabine 0.1 mg/kg single i.v., Female): 39.0 g | Mean food consumption/day [1, 2]: 31.0 g | Mean weigth increase by day 14 [1, 2]: 132.5 g | Mean food consumption/day [1, 3]: 19.7 g | Mean weigth increase by day 14 [1, 3]: 43.1 g | Mean food consumption/day [1, 4]: 27.8 g | Mean weigth increase by day 14 [1, 4]: 111.6 g | Urinalysis VOLUME (Urinalysis, day 15; animal B9 (F), unit not given): 0.5 | Urinalysis CLARITY (Urinalysis, day 15; [5]): HAZY | Urinalysis COLOR (Urinalysis, day 15; [5]): YELLOW | Urinalysis GLUCOSE (Urinalysis, day 15; [5]): NEGATIVE | Urinalysis UROBILINOGEN (Urinalysis, day 15; [5]): NORMAL | Urinalysis VOLUME (Urinalysis, day 15; [5]): <0.5 mL | Urinalysis BILIRUBIN (Urinalysis, day 15; individual animals B1-B10 (M and F), 0.1 mg/kg): NEGATIVE
